Experimental data from US20020115177A1, “Regulation of human histone deacetylase” (priority 2000, published 2002).

Tests used:
[1] = tested on: histone deacetylase (SEQ ID NO:2); test: Histone deacetylase assay with nuclear extract of recombinant HEK293 cells (3H-acetylated chicken core histones); assay type: biochemical, human; settings: TSA 1 μM; 30° C. for 90 minutes; released radioactivity
Method: Carboxy-terminal myc tagged histone deacetylase (SEQ ID NO:2) was cloned into a pcDNA3.1 vector and transfected into HEK293 cells. Recombinant clones were isolated and analyzed for histone deacetylase (HDAC) activity using the following procedure. Eight million recombinant or control cells were rinsed in 10 ml. of cold PBS, scraped, and spun at 500× g for 5 minutes. The cell pellet was rinsed with cold PBS and transferred to an Eppendorf tube. Nuclei were prepared by lysing the cells in 1 ml of Buffer A (10 mM HEPES, pH 7.5, 10 mM KCl, 1.5mM MgCl2, 0.5% NP40 and a cocktail of protease inhibitors without EDTA) on ice for 30 minutes. The lysate was spun at 1500× g for 5 minutes, then the supernatant was discarded. The pellet was washed in Buffer A without NP40. The nuclear pellet was sonicated three times for 5 seconds each on ice in 0.5 ml of 20 mM HEPES pH7.5, 1.5mM MgCl2, 10% glycerol and a cocktail of protease inhibitors without EDTA. The nuclear lysate was spun at 100,000× g for 30 min. Fifty μl aliquots of supernantant were stored at −80° C.
A HDAC assay was carried out in 100 μL of 25mM HEPES pH 7.5 buffer containing 0.1 mg/ml BSA, 1 mM MgCl2, 0.005% Triton X-100, ^3H-acetylated chicken core histones, and varying (0.5 to 4 μg) amounts of nuclear extracts at 30° C. for 90 minutes. […] Released radioactivity was counted as a measure of HDAC activity. […]

[2] = tested on: human histone deacetylase; test: Expression of human histone deacetylase in oligonucleotide-treated HCT116 cells, by Western blotting; assay type: cell-based; settings: oligonucleotide 10 μM once per day for seven days
Method: The cell line used for testing is the human colon cancer cell line HCT116. Cells are cultured in RPMI-1640 with 10-15% fetal calf serum at a concentration of 10,000 cells per milliliter in a volume of 0.5 ml and kept at 37° C. in a 95% air/5%CO2 atmosphere. Phosphorothioate oligoribonucleotides are synthesized on an Applied Biosystems Model 380B DNA synthesizer using phosphoroamidite chemistry. A sequence of 24 bases complementary to the nucleotides at position 1 to 24 of SEQ ID NO: 1 is used as the test oligonucleotide. As a control, another (random) sequence is used: 5'-[NT] ID NO:23). Following assembly and deprotection, oligonucleotides are ethanol-precipitated twice, dried, and suspended in phosphate buffered saline at the desired concentration. Purity of the oligonucleotides is tested by capillary gel electrophoresis and ion exchange HPLC. The purified oligonucleotides are added to the culture medium at a concentration of 10 μM once per day for seven days. […] This effect is not observed with the control oligonucleotide. After 3 to 7 days, the number of cells in the cultures is counted using an automatic cell counter. The number of cells in cultures treated with the test oligonucleotide (expressed as 100%) is compared with the number of cells in cultures treated with the control oligonucleotide.

For `CC(/C=C/C(=O)NO)=C\[C@@H](C)C(=O)c1ccc(N(C)C)cc1` [TSA, Trichostatin A], the “inhibition of HDAC activity of recombinant nuclear extract” value [1] was “inhibited”.
In the case of “control oligonucleotide: Control (random) sequence: 5′-TCAACTGACTAGATGTACATGGAC-5′ (SEQ ID NO:23) (TCAACTGACTAGATGTACATGGAC; listed as DNA, chemistry not fully specified)”, the “expression of human histone deacetylase as determined by Western blotting” value [2] is reported as “not observed”.
